Measurements: the NIST ThermoML archive (doi:10.1016/j.jct.2010.07.016)
Numbers after ± are expanded uncertainties.

What was measured:
[1] = xn = mol fraction of the nth substance listed; conditions: 308.15 K, 101 kPa, Liquid; for excess molar volume: Direct dilatometry; for speed of sound: Linear variable-path acoustic interferometer
[2] = excess molar enthalpy (molar enthalpy of mixing); xn = mol fraction of the nth substance listed; conditions: 308.15 K, 101 kPa, Liquid, Drop calorimeter

With `Cc1ccccc1C` [1,2-dimethylbenzene] + C1CCOCC1 the excess molar volume ([1]; x2 = 0.0536) was -1.2e-08 ± 2e-09 m3/mol, the excess molar volume ([1]; x2 = 0.0643) was -1.4e-08 ± 2e-09 m3/mol and the excess molar volume ([1]; x2 = 0.0805) was -1.7e-08 ± 2e-09 m3/mol. For the same compound, the excess molar volume ([1]; x2 = 0.1127) was -2.3e-08 ± 2e-09 m3/mol, the excess molar volume ([1]; x2 = 0.1816) was -3.4e-08 ± 2e-09 m3/mol and the excess molar volume ([1]; x2 = 0.2975) was -4.7e-08 ± 2e-09 m3/mol. It also gave an excess molar volume ([1]; x2 = 0.3954) of -5.3e-08 ± 2e-09 m3/mol, an excess molar volume ([1]; x2 = 0.4935) of -5.5e-08 ± 2e-09 m3/mol and an excess molar volume ([1]; x2 = 0.52) of -5.4e-08 ± 2e-09 m3/mol. The excess molar volume ([1]; x2 = 0.5642) was -5.3e-08 ± 2e-09 m3/mol, the excess molar volume ([1]; x2 = 0.6421) was -4.8e-08 ± 2e-09 m3/mol and the excess molar volume ([1]; x2 = 0.7314) was -4e-08 ± 2e-09 m3/mol. For the same compound, the excess molar volume ([1]; x2 = 0.8832) was -1.9e-08 ± 2e-09 m3/mol, the excess molar volume ([1]; x2 = 0.9228) was -1.3e-08 ± 2e-09 m3/mol and the speed of sound ([1]; x2 = 0.0854) was 1319 ± 3 m/s. The speed of sound ([1]; x2 = 0.1494) was 1315 ± 3 m/s, the speed of sound ([1]; x2 = 0.2134) was 1309 ± 3 m/s and the speed of sound ([1]; x2 = 0.2834) was 1303 ± 3 m/s. For the same compound, the speed of sound ([1]; x2 = 0.3778) was 1293 ± 3 m/s, the speed of sound ([1]; x2 = 0.4756) was 1281 ± 3 m/s and the speed of sound ([1]; x2 = 0.5132) was 1277 ± 3 m/s. For the same compound, the speed of sound ([1]; x2 = 0.5668) was 1270 ± 3 m/s, the speed of sound ([1]; x2 = 0.6124) was 1265 ± 3 m/s and the speed of sound ([1]; x2 = 0.7035) was 1254 ± 3 m/s. The speed of sound ([1]; x2 = 0.7866) was 1245 ± 3 m/s, the speed of sound ([1]; x2 = 0.8645) was 1237 ± 3 m/s and the speed of sound ([1]; x2 = 0.9344) was 1230 ± 3 m/s. The speed of sound ([1]; x2 = 0.9545) was 1228 ± 3 m/s, the excess molar enthalpy ([2]; x2 = 0.0587) was -0.00636 ± 0.000263 kcal/mol and the excess molar enthalpy ([2]; x2 = 0.0691) was -0.00729 ± 0.000263 kcal/mol. The excess molar enthalpy ([2]; x2 = 0.0838) was -0.00851 ± 0.000287 kcal/mol, the excess molar enthalpy ([2]; x2 = 0.1451) was -0.0123 ± 0.000359 kcal/mol and the excess molar enthalpy ([2]; x2 = 0.1809) was -0.0137 ± 0.000382 kcal/mol. It also gave an excess molar enthalpy ([2]; x2 = 0.2454) of -0.0147 ± 0.000406 kcal/mol, an excess molar enthalpy ([2]; x2 = 0.3023) of -0.0141 ± 0.000382 kcal/mol and an excess molar enthalpy ([2]; x2 = 0.3872) of -0.0111 ± 0.000335 kcal/mol. For the same compound, the excess molar enthalpy ([2]; x2 = 0.4425) was -0.00817 ± 0.000287 kcal/mol, the excess molar enthalpy ([2]; x2 = 0.5752) was 0.000574 ± 0.000191 kcal/mol and the excess molar enthalpy ([2]; x2 = 0.647) was 0.00526 ± 0.000239 kcal/mol. The excess molar enthalpy ([2]; x2 = 0.7443) was 0.0101 ± 0.000311 kcal/mol, the excess molar enthalpy ([2]; x2 = 0.8495) was 0.0112 ± 0.000335 kcal/mol and the excess molar enthalpy ([2]; x2 = 0.9437) was 0.00638 ± 0.000263 kcal/mol.

With `Cc1cccc(C)c1` [1,3-dimethylbenzene] + C1CCOCC1 the excess molar volume ([1]; x2 = 0.0626) was -6e-09 ± 2e-09 m3/mol, the excess molar volume ([1]; x2 = 0.1258) was -1.2e-08 ± 2e-09 m3/mol and the excess molar volume ([1]; x2 = 0.1731) was -1.7e-08 ± 2e-09 m3/mol. The excess molar volume ([1]; x2 = 0.2459) was -2.2e-08 ± 2e-09 m3/mol, the excess molar volume ([1]; x2 = 0.3452) was -2.8e-08 ± 2e-09 m3/mol and the excess molar volume ([1]; x2 = 0.4411) was -3.2e-08 ± 2e-09 m3/mol. It also gave an excess molar volume ([1]; x2 = 0.4801) of -3.2e-08 ± 2e-09 m3/mol, an excess molar volume ([1]; x2 = 0.5413) of -3.2e-08 ± 2e-09 m3/mol and an excess molar volume ([1]; x2 = 0.6033) of -3.2e-08 ± 2e-09 m3/mol. It also gave an excess molar volume ([1]; x2 = 0.6541) of -3e-08 ± 2e-09 m3/mol, an excess molar volume ([1]; x2 = 0.7113) of -2.7e-08 ± 2e-09 m3/mol and an excess molar volume ([1]; x2 = 0.7852) of -2.2e-08 ± 2e-09 m3/mol. It also gave an excess molar volume ([1]; x2 = 0.8934) of -1.2e-08 ± 2e-09 m3/mol, an excess molar volume ([1]; x2 = 0.9229) of -9e-09 ± 2e-09 m3/mol and a speed of sound ([1]; x2 = 0.0923) of 1277 ± 3 m/s. It also gave a speed of sound ([1]; x2 = 0.1515) of 1273 ± 3 m/s, a speed of sound ([1]; x2 = 0.2161) of 1269 ± 3 m/s and a speed of sound ([1]; x2 = 0.285) of 1264 ± 3 m/s. It also gave a speed of sound ([1]; x2 = 0.3278) of 1261 ± 3 m/s, a speed of sound ([1]; x2 = 0.3611) of 1259 ± 3 m/s and a speed of sound ([1]; x2 = 0.4081) of 1256 ± 3 m/s. It also gave a speed of sound ([1]; x2 = 0.4621) of 1253 ± 3 m/s, a speed of sound ([1]; x2 = 0.5179) of 1250 ± 3 m/s and a speed of sound ([1]; x2 = 0.5568) of 1248 ± 3 m/s. The speed of sound ([1]; x2 = 0.6179) was 1244 ± 3 m/s, the speed of sound ([1]; x2 = 0.7078) was 1239 ± 3 m/s and the speed of sound ([1]; x2 = 0.7889) was 1235 ± 3 m/s. It also gave a speed of sound ([1]; x2 = 0.8646) of 1231 ± 3 m/s, an excess molar enthalpy ([2]; x2 = 0.0474) of -0.00437 ± 0.000215 kcal/mol and an excess molar enthalpy ([2]; x2 = 0.086) of -0.0071 ± 0.000263 kcal/mol. It also gave an excess molar enthalpy ([2]; x2 = 0.1141) of -0.00863 ± 0.000287 kcal/mol, an excess molar enthalpy ([2]; x2 = 0.1754) of -0.0107 ± 0.000335 kcal/mol and an excess molar enthalpy ([2]; x2 = 0.26) of -0.011 ± 0.000335 kcal/mol. For the same compound, the excess molar enthalpy ([2]; x2 = 0.3488) was -0.00872 ± 0.000287 kcal/mol, the excess molar enthalpy ([2]; x2 = 0.4432) was -0.00416 ± 0.000215 kcal/mol and the excess molar enthalpy ([2]; x2 = 0.4765) was -0.0022 ± 0.000215 kcal/mol. For the same compound, the excess molar enthalpy ([2]; x2 = 0.5624) was 0.00311 ± 0.000215 kcal/mol, the excess molar enthalpy ([2]; x2 = 0.6834) was 0.00978 ± 0.000311 kcal/mol and the excess molar enthalpy ([2]; x2 = 0.7603) was 0.0122 ± 0.000359 kcal/mol. It also gave an excess molar enthalpy ([2]; x2 = 0.8001) of 0.0126 ± 0.000359 kcal/mol, an excess molar enthalpy ([2]; x2 = 0.8744) of 0.0112 ± 0.000335 kcal/mol and an excess molar enthalpy ([2]; x2 = 0.9453) of 0.00643 ± 0.000263 kcal/mol.
